US8440646B1 (priority 2006, dated 2013)
≈ marks a conversion by molar mass, not a printed value. Where two headings read alike, the source gives them in different places.

What was measured:
S. pneumoniae 157E [1] = assay: microbe, parasite or virus in culture; type: cell-based; conditions: Streptococcus pneumoniae
S. aureus MRSA5 = assay: microbe, parasite or virus in culture; type: cell-based; conditions: Staphylococcus aureus
S. aureus RN450 = assay: microbe, parasite or virus in culture; type: cell-based; conditions: Staphylococcus aureus
S. pneumoniae 700905 [2] = assay: microbe, parasite or virus in culture; type: cell-based; conditions: Streptococcus pneumoniae
E. faecalis 29212 = assay: microbe, parasite or virus in culture; type: cell-based; conditions: Enterococcus faecalis
E. faecium 494 = assay: microbe, parasite or virus in culture; type: cell-based; conditions: Enterococcus faecium
S. aureus RN4250 = assay: microbe, parasite or virus in culture; type: cell-based; conditions: Staphylococcus aureus, RN4250
S. pneumoniae 157E [3] = assay: animal or person; type: in vivo, mice
S. pneumoniae 700905 [4] = tested on: S. pneumoniae 700905; design: species or system mice; conditions: mouse, in vivo
S. pneumoniae 157E [5] = tested on: S. pneumoniae 157E; design: species or system mice; conditions: mouse, in vivo
[6] = tested on: Protein synthesis of S. aureus RN450; assay: microbe, parasite or virus in culture; type: cell-based
[7] = tested on: Peptidoglycan synthesis of S. aureus RN450; assay: microbe, parasite or virus in culture; type: cell-based; conditions: Staphylococcus aureus
[8] = Streptococcus pneumoniae, 157E, in Mus musculus, po, 48 h, read-out: % survival
[9] = Streptococcus pneumoniae, 157E, in Mus musculus, sc, 48 h, read-out: % survival

SMILES	MIC (S. aureus MRSA5) [µg/mL]	MIC (S. aureus RN450) [µg/mL]	MIC (S. pneumoniae 700905 [2]) [µg/mL]	MIC (E. faecalis 29212) [µg/mL]	MIC (E. faecium 494) [µg/mL]	MIC (S. aureus RN4250) [µg/mL]	also measured
COCCOC(=O)Nc1ccc(-c2ccc(O)c3c2C[C@H]2C[C@H]4[C@H](N(C)C)C(O)=C(C(N)=O)C(=O)[C@@]4(O)C(O)=C2C3=O)cc1 [AD]	1 (≈ 1.65 µM)	0.06 (≈ 0.0987 µM)	0.5 (≈ 0.823 µM)	–	–	–	MIC (S. pneumoniae 157E [1]): 0.13 µg/mL (≈ 0.214 µM)
CCN(CCCC(F)(F)F)Cc1cc(N(C)C)c2c(c1O)C(=O)C1=C(O)[C@]3(O)C(=O)C(C(N)=O)=C(O)[C@@H](N(C)C)[C@@H]3C[C@@H]1C2 [N]	1 (≈ 1.6 µM)	–	0.13 (≈ 0.208 µM)	1 (≈ 1.6 µM)	0.5 (≈ 0.8 µM)	–	–
CC1CN(C2CCN(Cc3cc(N(C)C)c4c(c3O)C(=O)C3=C(O)[C@]5(O)C(=O)C(C(N)=O)=C(O)[C@@H](N(C)C)[C@@H]5C[C@@H]3C4)CC2)CC(C)O1 (stereo partly shown) [Compound R]	1 (≈ 1.5 µM)	–	0.13 (≈ 0.195 µM)	2 (≈ 2.99 µM)	1 (≈ 1.5 µM)	–	–
CC(C)N(C)Cc1ccc(-c2ccc(O)c3c2C[C@H]2C[C@H]4[C@H](N(C)C)C(O)=C(C(N)=O)C(=O)[C@@]4(O)C(O)=C2C3=O)o1 [Q]	–	0.06 (≈ 0.106 µM)	–	–	–	0.06 (≈ 0.106 µM)	–
CO/N=C(\C)c1cc(CNCC(C)(C)C)c(O)c2c1C[C@H]1C[C@H]3[C@H](N(C)C)C(O)=C(C(N)=O)C(=O)[C@@]3(O)C(O)=C1C2=O [E]	0.25 (≈ 0.428 µM)	–	0.06 (≈ 0.103 µM)	0.25 (≈ 0.428 µM)	1 (≈ 1.71 µM)	–	responders at 10 mg/kg (S. pneumoniae 157E [3]; [8]): 0%; responders at 5 mg/kg (S. pneumoniae 157E [3]; [9]): 40%
CN(C)[C@@H]1C(O)=C(C(N)=O)C(=O)[C@@]2(O)C(O)=C3C(=O)c4c(O)c(CNCCC(F)(F)F)cc(-c5ncccn5)c4C[C@H]3C[C@@H]12 [J]	0.5 (≈ 0.81 µM)	–	0.06 (≈ 0.0972 µM)	0.25 (≈ 0.405 µM)	1 (≈ 1.62 µM)	–	–
CN(Cc1ccccc1)Cc1cc(N(C)C)c2c(c1O)C(=O)C1=C(O)[C@]3(O)C(=O)C(C(N)=O)=C(O)[C@@H](N(C)C)[C@@H]3C[C@@H]1C2 [Compound I]	1 (≈ 1.69 µM)	–	0.5 (≈ 0.846 µM)	1 (≈ 1.69 µM)	1 (≈ 1.69 µM)	–	PD50 (S. pneumoniae 700905 [4]; iv): 2.2 mg/kg; PD50 (S. pneumoniae 700905 [4]; po): 31.6 mg/kg; PD50 (S. pneumoniae 157E [5]; iv): 1 mg/kg; PD50 (S. pneumoniae 157E [5]; po): 13.4 mg/kg; oral activity in words (S. pneumoniae 157E [5]; po): exhibited oral activity
CN(C)[C@@H]1C(O)=C(C(N)=O)C(=O)[C@@]2(O)C(O)=C3C(=O)c4c(O)ccc(C#Cc5ccccn5)c4C[C@H]3C[C@@H]12 [Z]	0.5 (≈ 0.97 µM)	0.13 (≈ 0.252 µM)	–	–	–	–	MIC (S. pneumoniae 157E [1]): 0.06 µg/mL (≈ 0.116 µM)
CN(C)[C@@H]1C(O)=C(C(N)=O)C(=O)[C@@]2(O)C(O)=C3C(=O)c4c(O)ccc(C(=O)CN5CCCCC5)c4C[C@H]3C[C@@H]12 [O]	–	0.06 (≈ 0.111 µM)	–	–	–	0.06 (≈ 0.111 µM)	macromolecular synthesis profile in words [6]: profile similar to class I compounds; IC50 ([6]; Staphylococcus aureus, read-out: Protein synthesis IC50): 0.33 µg/mL (≈ 0.612 µM); IC90 ([6]; Staphylococcus aureus, read-out: Protein synthesis IC90): 0.92 µg/mL (≈ 1.71 µM); IC50 ([7]; read-out: Peptidoglycan synthesis IC50): > 32 µg/mL; IC90 ([7]; read-out: Peptidoglycan synthesis IC90): > 32 µg/mL
CN(C)[C@@H]1C(O)=C(C(N)=O)C(=O)[C@@]2(O)C(O)=C3C(=O)c4c(O)ccc(-c5cncc(CN6CCCCC6)c5)c4C[C@H]3C[C@@H]12 [P]	–	0.06 (≈ 0.102 µM)	–	–	–	0.06 (≈ 0.102 µM)	–
CC(C)NCc1ccc(-c2ccc(O)c3c2C[C@H]2C[C@H]4[C@H](N(C)C)C(O)=C(C(N)=O)C(=O)[C@@]4(O)C(O)=C2C3=O)cc1 [W]	–	0.06 (≈ 0.107 µM)	–	–	–	0.06 (≈ 0.107 µM)	–
CN(C)c1cc(CNC2CCCCC2)c(O)c2c1C[C@H]1C[C@H]3[C@H](N(C)C)C(O)=C(C(N)=O)C(=O)[C@@]3(O)C(O)=C1C2=O [B]	1 (≈ 1.76 µM)	–	0.5 (≈ 0.879 µM)	1 (≈ 1.76 µM)	1 (≈ 1.76 µM)	–	responders at 5 mg/kg (S. pneumoniae 157E [3]; [8]): 40%; responders at 5 mg/kg (S. pneumoniae 157E [3]; [9]): 100%; efficacy in words (S. pneumoniae 157E [3]; mouse, in vivo): efficacious
C=CCN(C)Cc1cc(C(C)C)c2c(c1O)C(=O)C1=C(O)[C@]3(O)C(=O)C(C(N)=O)=C(O)[C@@H](N(C)C)[C@@H]3C[C@@H]1C2 [G]	0.5 (≈ 0.927 µM)	–	0.06 (≈ 0.111 µM)	0.5 (≈ 0.927 µM)	1 (≈ 1.85 µM)	–	–
